Paper PMC10377643, “Exploration of Bis-Cinnamido-Polyamines as Intrinsic Antimicrobial Agents and Antibiotic Enhancers” (Biomolecules, 2023)

Columns and labels:
S. aureus ATCC 25923 = assay: Antimicrobial MIC, S. aureus; type: cell-based; conditions: Staphylococcus aureus, ATCC25923, mean (n = 3)
Experimental: (§1) The susceptibility of bacterial strains S. aureus (ATCC 25923), E. coli (ATCC 25922) and P. aeruginosa (ATCC 27853) to antibiotics and compounds was determined using protocols reported previously. Additional antimicrobial evaluation against MRSA (ATCC 43300), Klebsiella pneumoniae (ATCC 700603), Acinetobacter baumannii (ATCC 19606), Candida albicans (ATCC 90028) and Cryptococcus neoformans (ATCC 208821) was undertaken at the Community for Open Antimicrobial Drug Discovery at The University of Queensland (Australia) according to their standard protocols reported previously.

MRSA ATCC 43300 = assay: Antimicrobial MIC, MRSA (CO-ADD); type: cell-based, methicillin-resistant S. aureus; conditions: Staphylococcus aureus; MRSA ATCC 43300; mean (n = 2); read-out: MIC MRSA
Experimental: as §1

P. aeruginosa ATCC 27853 [1] = assay: Antimicrobial MIC, P. aeruginosa; type: cell-based; conditions: Pseudomonas aeruginosa, ATCC27853, mean (n = 3)
Experimental: as §1

E. coli ATCC 25922 [2] = assay: Antimicrobial MIC, E. coli; type: cell-based, Escherichia coli; conditions: mean (n = 3)
Experimental: as §1

C. albicans ATCC 90028 = assay: Antifungal MIC, C. albicans (CO-ADD); type: cell-based; conditions: Candida albicans, ATCC90028, mean (n = 2)
Experimental: as §1

[3] = test system: C. neoformans ATCC 208821; assay: Antifungal MIC, C. neoformans (CO-ADD); type: cell-based; conditions: Cryptococcus neoformans, ATCC208821, mean (n = 2)
Experimental: as §1

Cytotoxicity assay = type: cell-based, human; conditions: human, HEK293 human embryonic kidney cells, mean (n = 2), read-out: Cytotoxicity (IC50), concentration of compound at 50% cytotoxicity
Experimental: Cytotoxicity assays were conducted using the protocols previously reported.

human red blood cells = assay: Hemolytic assay; type: cell-based; conditions: mean (n = 2)
Experimental: Hemolysis assays were conducted using the protocols previously reported.

P. aeruginosa ATCC 27853 [4] = assay: Doxycycline enhancement against P. aeruginosa; type: cell-based, Pseudomonas aeruginosa; conditions: doxycycline fixed at 4.5 µM
Experimental: (§2) Antibiotic enhancer concentrations were determined using previously reported protocols.
We then evaluated the set of analogues for the ability to enhance the antibiotic activity of doxycycline against P. aeruginosa ATCC 27853 and of erythromycin against E. coli ATCC 25922 (Table 2). In the case of doxycycline, a fixed concentration of the antibiotic of 4.5 μM, which is twenty-fold lower than the intrinsic MIC 90 μM against this organism, was used. Each of the test compounds was then evaluated at a range of concentrations varying from 3.125 to 50–100 μM, with the upper concentration dependent upon the compounds intrinsic MIC towards P. aeruginosa (Table 1). […] While the observation of cytotoxicity/hemolytic properties of 16a–c, 14f and 13f reduces our interest in these analogues, analogues 13b and 13d were identified as non-toxic and strong enhancers of the action of doxycycline towards P. aeruginosa.

E. coli ATCC 25922 [5] = assay: Erythromycin enhancement against E. coli; type: cell-based, Escherichia coli; conditions: erythromycin fixed at 10.9 µM (8 µg/mL)
Experimental: as §2

[6] = Escherichia coli, ATCC25922, E. coli ATCC 25922

SMILES	MIC (S. aureus ATCC 25923)	MIC (MRSA ATCC 43300)	MIC (P. aeruginosa ATCC 27853 [1])	MIC (E. coli ATCC 25922 [2]; [6])	MIC (C. albicans ATCC 90028)	MIC [3]	IC50 (Cytotoxicity assay)	Hemolysis (HC10), concentration of compound at 10% hemolytic activity (human red blood cells)	Dox/P. a: concentration required to restore doxycycline activity (P. aeruginosa ATCC 27853 [4])	Dox/P. a: fold change (intrinsic MIC of test compound / combination MIC) (P. aeruginosa ATCC 27853 [4])	Eryth/E. c: concentration required to restore erythromycin activity (E. coli ATCC 25922 [5])	Eryth/E. c: fold change (intrinsic MIC of test compound / combination MIC) (E. coli ATCC 25922 [5])	MIC (E. coli ATCC 25922 [2]; E. coli ATCC 25922)
COc1ccc(/C=C/C(=O)NCCCNCCCCCCNCCCNC(=O)/C=C/c2ccc(OC)c(Br)c2)cc1Br.O=C(O)C(F)(F)F.O=C(O)C(F)(F)F [Compound 15b, N^1,N^6-Bis(3-((E)-3-(3-bromo-4-methoxyphenyl)acrylamido)propyl)hexane-1,6-diaminium 2,2,2-trifluoroacetate]	6.67 µM	2.1 µM	> 214 µM	53 µM	> 34.1 µM	≤ 0.27 µM	> 34.2 µM	0.99 µM	53.4 µM	> 4 fold	26.7 µM	2 fold	
COc1c(Br)cc(/C=C/C(=O)NCCCNCCCCCCCCCCCCNCCCNC(=O)/C=C/c2cc(Br)c(OC)c(Br)c2)cc1Br.O=C(O)C(F)(F)F.O=C(O)C(F)(F)F [Compound 16f, N^1,N^12-Bis(3-((E)-3-(3,5-dibromo-4-methoxyphenyl)acrylamido)propyl)dodecane-1,12-diaminium 2,2,2-trifluoroacetate]	5.3 µM	≤ 0.21 µM	> 170 µM	5.3 µM	≤ 0.21 µM	≤ 0.21 µM	1.44 µM	0.24 µM	42.4 µM	> 4 fold	5.30 µM	1 fold	5.30 µM
COc1c(Br)cc(/C=C/C(=O)NCCCNCCCCCCCCNCCCNC(=O)/C=C/c2cc(Br)c(OC)c(Br)c2)cc1Br.O=C(O)C(F)(F)F.O=C(O)C(F)(F)F [Compound 16d, N^1,N^8-Bis(3-((E)-3-(3,5-dibromo-4-methoxyphenyl)acrylamido)propyl)octane-1,8-diaminium 2,2,2-trifluoroacetate]	5.57 µM	≤ 0.22 µM	> 178 µM	11.1 µM	> 28.5 µM	≤ 0.22 µM	11 µM	≤0.22 µM	44.5 µM	> 4 fold	22.3 µM	0.5 fold	
COc1ccc(/C=C/C(=O)NCCCNCCCCCCCCNCCCNC(=O)/C=C/c2ccc(OC)c(Br)c2)cc1Br.O=C(O)C(F)(F)F.O=C(O)C(F)(F)F [Compound 15d, N^1,N^8-Bis(3-((E)-3-(3-bromo-4-methoxyphenyl)acrylamido)propyl)octane-1,8-diaminium 2,2,2-trifluoroacetate]	6.48 µM	≤ 0.26 µM	> 207 µM	25.9 µM	33.2 µM	≤ 0.26 µM	19.7 µM	0.52 µM	51.8 µM	> 4 fold	25.9 µM	1 fold	
COc1c(Br)cc(/C=C/C(=O)NCCCNCCCCCCNCCCNC(=O)/C=C/c2cc(Br)c(OC)c(Br)c2)cc1Br.O=C(O)C(F)(F)F.O=C(O)C(F)(F)F [Compound 16b, N^1,N^6-Bis(3-((E)-3-(3,5-dibromo-4-methoxyphenyl)acrylamido)propyl)hexane-1,6-diaminium 2,2,2-trifluoroacetate]	5.71 µM	≤ 0.23 µM	> 183 µM	11.4 µM	29.2 µM	≤ 0.23 µM	15.6 µM	0.91 µM		> 16 fold	11.4 µM	1 fold	
O=C(C=Cc1ccccc1)NCCCNCCCCCCCCCCCCNCCCNC(=O)C=Cc1ccccc1.O=C(O)C(F)(F)F.O=C(O)C(F)(F)F [Compound 13f, N^1,N^12-Bis(3-cinnamamidopropyl)dodecane-1,12-diaminium 2,2,2-trifluoroacetate]	3.12 µM	≤ 0.31 µM	50 µM	1.56 µM	> 39.9 µM	≤ 0.31 µM	19.9 µM	>39.9 µM	6.25 µM	8 fold	3.125 µM	0.5 fold	
COc1c(Br)cc(/C=C/C(=O)NCCCNCCCCCCCNCCCNC(=O)/C=C/c2cc(Br)c(OC)c(Br)c2)cc1Br.O=C(O)C(F)(F)F.O=C(O)C(F)(F)F [Compound 16c, N^1,N^7-Bis(3-((E)-3-(3,5-dibromo-4-methoxyphenyl)acrylamido)propyl)heptane-1,7-diaminium 2,2,2-trifluoroacetate]	5.64 µM	≤ 0.23 µM	180 µM	11.3 µM	> 28.9 µM	≤ 0.23 µM	22 µM	0.31 µM		16 fold	22.6 µM	0.5 fold	
COc1ccc(/C=C/C(=O)NCCCNCCCCCCCCCCNCCCNC(=O)/C=C/c2ccc(OC)c(Br)c2)cc1Br.O=C(O)C(F)(F)F.O=C(O)C(F)(F)F [Compound 15e, N^1,N^10-Bis(3-((E)-3-(3-bromo-4-methoxyphenyl)acrylamido)propyl)decane-1,10-diaminium 2,2,2-trifluoroacetate]	1.57 µM	≤ 0.25 µM	50.4 µM	25.2 µM	32.2 µM	1 µM	> 32.2 µM	24.1 µM	50.4 µM	1 fold			
COc1ccc(/C=C/C(=O)NCCCNCCCCCCNCCCNC(=O)/C=C/c2ccc(OC)cc2)cc1.O=C(O)C(F)(F)F.O=C(O)C(F)(F)F [Compound 14b, N^1,N^6-Bis(3-((E)-3-(4-methoxyphenyl)acrylamido)propyl)hexane-1,6-diaminium 2,2,2-trifluoroacetate]	64.2 µM	41.1 µM	> 257 µM	> 257 µM	> 41.1 µM	≤ 0.32 µM	> 41.1 µM	>41.1 µM	64 µM	> 4 fold	256 µM	> 1 fold	
O=C(C=Cc1ccccc1)NCCCNCCCCCCCCCCNCCCNC(=O)C=Cc1ccccc1.O=C(O)C(F)(F)F.O=C(O)C(F)(F)F [Compound 13e, N^1,N^10-Bis(3-cinnamamidopropyl)decane-1,10-diaminium 2,2,2-trifluoroacetate]	64.5 µM	20.6 µM	645 µM	645 µM	> 41.3 µM	41.3 µM	24.3 µM	37.6 µM	645 µM	1 fold	64.5 µM	10 fold	
